Results as given in patent US20240425479A1, “HALO-SUBSTITUTED AMINO AZA-HETEROARYL COMPOUNDS AS INHIBITORS OF THE HAEMATOPOIETIC PROGENITOR KINASE 1 (HPK1)” (priority 2021, published 2024).

Tests used:
[1] = biological target: T1, Recombinant (1-346) HPK1 (h) (Homo sapiens, UniProt Q92918); assay: HPK1 human STE kinase enzymatic radiometric assay; format: biochemical; conditions: read-out: HPK1 IC50 nM Range
T1 construct: Recombinant (1-346) HPK1 (h) is incubated with 8 mM MOPS pH 7.0
T1 sequence (Q92918 1-346): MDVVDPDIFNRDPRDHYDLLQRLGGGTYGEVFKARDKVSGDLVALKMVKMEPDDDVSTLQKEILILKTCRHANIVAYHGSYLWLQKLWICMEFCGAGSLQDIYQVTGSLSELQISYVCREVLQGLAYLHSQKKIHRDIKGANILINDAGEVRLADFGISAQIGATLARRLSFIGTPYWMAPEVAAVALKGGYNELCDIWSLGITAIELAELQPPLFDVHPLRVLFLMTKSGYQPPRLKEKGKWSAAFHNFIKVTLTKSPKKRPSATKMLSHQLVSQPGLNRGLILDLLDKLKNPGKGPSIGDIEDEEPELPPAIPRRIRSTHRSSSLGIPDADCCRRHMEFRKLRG
In short: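 Recombinant HPK1 (1-346) incubated 40 min at RT with 0.33 mg/mL myelin basic protein and [gamma-33P]-ATP in 8 mM MOPS pH 7.0, 0.2 mM EDTA, 10 mM Mg acetate; reaction started with Mg/ATP. Stopped with 0.5% phosphoric acid, spotted on P30 filtermat, washed, scintillation counted. Compounds tested as 9-point 3-fold dilutions.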

Lck (h) = Lck (h) (Homo sapiens, UniProt P06239); assay: Lck human STE kinase enzymatic radiometric assay; format: biochemical; conditions: read-out: Lck IC50 nM Range
Sequence of Lck (h) (P06239 whole entry): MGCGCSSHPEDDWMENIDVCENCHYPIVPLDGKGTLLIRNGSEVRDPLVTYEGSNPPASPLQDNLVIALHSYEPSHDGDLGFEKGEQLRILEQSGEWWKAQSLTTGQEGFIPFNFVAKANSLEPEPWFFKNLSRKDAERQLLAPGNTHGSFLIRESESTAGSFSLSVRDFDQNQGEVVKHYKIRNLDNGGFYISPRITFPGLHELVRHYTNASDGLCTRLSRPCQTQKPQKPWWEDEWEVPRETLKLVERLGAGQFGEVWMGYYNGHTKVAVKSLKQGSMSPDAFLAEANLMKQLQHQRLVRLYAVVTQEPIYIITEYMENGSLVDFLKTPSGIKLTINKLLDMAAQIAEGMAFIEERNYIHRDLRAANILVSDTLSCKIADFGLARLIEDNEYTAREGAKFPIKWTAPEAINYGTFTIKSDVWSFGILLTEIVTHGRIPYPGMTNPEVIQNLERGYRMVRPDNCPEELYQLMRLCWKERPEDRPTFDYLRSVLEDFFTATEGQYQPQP

IC50 [1] [nM] | IC50 (Lck (h)) [nM] | SMILES
0.1 to 10 | > 1000 | Cc1c[nH]c(=O)c2ccc(-c3nc(-c4ccc(N5CCOCC5)c(CN(C)C)c4)c(F)nc3N)cc12 [Example I-96, 6-(3-amino-6-(3-((dimethylamino)methyl)-4-morpholinophenyl)-5-fluoropyrazin-2-yl)-4-methylisoquinolin-1(2H)-one]
0.1 to 10 | > 1000 | CC(C)N1CCN(c2ccc(-c3nc(-c4ccc5c(c4)CCNC5=O)c(N)nc3F)cc2)CC1 [Example I-1, 6-(3-amino-5-fluoro-6-(4-(4-isopropylpiperazin-1-yl)phenyl)pyrazin-2-yl)-3,4-dihydroisoquinolin-1(2H)-one]
